Test results reported in ChEMBL document CHEMBL1201862, “PubChem BioAssay data set” (2004).
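Compound exposure: 48 hours, 5 concentrations, 96-well plates. GI50: concentration for 50% inhibition of growth.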 Activity calls are given as the source filed them. Rule as the data show it: active = GI50 up to about 1.1 µM and inactive = higher.

Tests used:
Assay in all cases: NCI-60 cell line screen, 48 h
[1] = tested on: LOX IMVI
[2] = tested on: Hs-578T
[3] = tested on: HCT-15
[4] = tested on: UACC-62
[5] = tested on: RPMI-8226
[6] = tested on: NCI/ADR-RES
[7] = tested on: SNB-75
[8] = tested on: HL-60
[9] = tested on: SF-268
[10] = tested on: EKVX
[11] = tested on: K562
[12] = tested on: CCRF-CEM
[13] = tested on: OVCAR-4
[14] = tested on: OVCAR-8
[15] = tested on: M14
[16] = tested on: T47D
[17] = tested on: SK-MEL-2
[18] = tested on: HCT-116
[19] = tested on: ACHN
[20] = tested on: RXF 393

SMILES | GI50 [1] | GI50 [2] | GI50 [3] | GI50 [4] | GI50 [5] | GI50 [6] | GI50 [7] | GI50 [8] | GI50 [9] | GI50 [10] | GI50 [11] | GI50 [12] | GI50 [13] | GI50 [14] | GI50 [15] | GI50 [16] | GI50 [17] | GI50 [18] | GI50 [19] | GI50 [20]
COc1cc2nc(-c3cccs3)nc(Nc3cccc(Cl)c3)c2cc1OC | 42.6 µM (inactive) | 31.6 µM (inactive) | 88.9 µM | > 100 µM (inactive) | 51.9 µM (inactive) | 48.2 µM (inactive) | 36.3 µM (inactive) | > 100 µM (inactive) | 31.3 µM (inactive) | 88.9 µM (inactive) | > 100 µM (inactive) | 34 µM (inactive) | 28.8 µM (inactive) | 37.8 µM (inactive) | 78.3 µM (inactive) | 44.6 µM (inactive) | > 100 µM (inactive) | > 100 µM (inactive) | 78.5 µM (inactive) | –
C/C=C(\C)c1cc(=O)c2c(C)cc3c(c2o1)C(OC)(OC(C)=O)c1c(O)c(C2CC(C)(N(C)C)C(OC(C)=O)C(C)O2)cc(C2CC(N(C)C)C(OC(C)=O)C(C)O2)c1C3=O (stereo not drawn) | 0.512 µM (active) | 1.16 µM (inactive) | 1.05 µM | 1.22 µM (inactive) | – | 1.75 µM (inactive) | 1.69 µM (inactive) | – | 0.27 µM (active) | 1.07 µM (active) | 0.239 µM (active) | 0.419 µM (active) | – | 0.552 µM (active) | 1.24 µM (inactive) | 3.74 µM (inactive) | 2.18 µM (inactive) | 0.286 µM (active) | 0.202 µM (active) | 1.37 µM (inactive)
O=C(NCCO)c1ccc(Cl)cc1 | > 100 µM (inactive) | > 100 µM (inactive) | > 100 µM | > 100 µM (inactive) | – | > 100 µM (inactive) | > 100 µM (inactive) | – | > 100 µM (inactive) | > 100 µM (inactive) | > 100 µM (inactive) | 26.1 µM (inactive) | > 100 µM (inactive) | > 100 µM (inactive) | > 100 µM (inactive) | > 100 µM (inactive) | > 100 µM (inactive) | > 100 µM (inactive) | > 100 µM (inactive) | > 100 µM (inactive)
COc1ccc(NCc2c(O)ccc3ccccc23)cc1 | 15.9 µM (inactive) | 60.5 µM (inactive) | 13.7 µM | 8.09 µM (inactive) | 24.7 µM (inactive) | 40.5 µM (inactive) | > 100 µM (inactive) | – | 19.9 µM (inactive) | 18.9 µM (inactive) | 10.7 µM (inactive) | – | 43.1 µM (inactive) | 15.8 µM (inactive) | 14 µM (inactive) | 17.4 µM (inactive) | 64.1 µM (inactive) | 33.8 µM (inactive) | 13.4 µM (inactive) | 16.5 µM (inactive)
COC(=O)C1(Cc2ccc3c(c2)CCC3)Cc2ccccc2C1=O (stereo not drawn) | 10.5 µM (inactive) | 13.4 µM (inactive) | 6.76 µM | 8.43 µM (inactive) | 9.91 µM (inactive) | 7.06 µM (inactive) | 10.8 µM (inactive) | 3.12 µM (inactive) | 22.1 µM (inactive) | 17.3 µM (inactive) | 3.31 µM (inactive) | 6.97 µM (inactive) | 26.2 µM (inactive) | 26.1 µM (inactive) | 9.53 µM (inactive) | 19.3 µM (inactive) | 13.2 µM (inactive) | 7.8 µM (inactive) | 33.3 µM (inactive) | –
COc1ccc(C2SCC(=O)N2NC(=O)c2ccc(NC(C)=O)cc2)cc1 (stereo not drawn) | – | > 100 µM (inactive) | > 100 µM | > 100 µM (inactive) | > 100 µM (inactive) | > 100 µM (inactive) | > 100 µM (inactive) | – | > 100 µM (inactive) | > 100 µM (inactive) | > 100 µM (inactive) | – | > 100 µM (inactive) | > 100 µM (inactive) | > 100 µM (inactive) | > 100 µM (inactive) | > 100 µM (inactive) | > 100 µM (inactive) | > 100 µM (inactive) | > 100 µM (inactive)
